# From patent publication US20040141912A1, “Method for targeting chemical compounds to cells and pharmaceutical compositions used therein” (priority 2001, published 2004)
# “Also recorded” adds a separate entry of the source.
# Legend:
# Assay type in all cases: cell-based, human
# Jurkat cells [1] = experiment: FACS analysis of DDC uptake by Jurkat cells induced to undergo apoptosis by anti-Fas antibody (PI co-staining)
# Protocol: FIG. 3: Cultured Jurkat cells (A) were induced to undergo apoptosis by anti-Fas antibody (0.1 μg/ml) for three hours. Subsequently, both control cells (A and C) and apoptotic cells (B and D) were then incubated with 50 μM of DDC in the presence (C and D) and absence (A and B) of 1 μM of rottlerin, an inhibitor of PKCδ. Prior to FACS analysis, cells were also co-stained with propidium iodide (PI), a marker of membrane disintegration during late phases of cell death. In the shown dot plot, the left lower quadrant represents the healthy, non-stained fraction of cells. The right lower quadrant represents the newly formed population of cells in the early stages of apoptosis. These cells are PLS-activated cells, yet still maintaining membrane integrity and thus excluding PI. Cells binding both DDC and PI, i.e., cells in the late stages of apoptosis are represented in the right upper quadrant. The induction of apoptosis was associated with the emergence of a marked, distinct population of cells in the early stages of the apoptotic process, selectively binding DDC and occupying the right lower quadrant of the plot. […] UV axis denotes fluorescence intensity of DDC; FL2 axis denotes fluorescence intensity of PI.
# FIG. 4: Jurkat cells were induced to undergo apoptosis by treatment with anti-Fas Ab (0.1 μg/ml) for three hours. Subsequently, cells were co-incubated with 50 μM of DDC and PI, in the presence of 1 mM of CaCl2, or under conditions of calcium deprivation (i.e., co-administration of the calcium chelators BAPTA and EGTA). Binding of DDC and PI was evaluated by FACS.
# FIG. 4A: A and C: control cells; B and D: apoptotic cells; A and B: with Ca^2+; C and D: deprivation of Ca^2+. The lower left quadrant in each dot plot represents the healthy non-stained fraction of cells. The lower right quadrant represents the newly formed population of cells in the early stages of apoptosis, characterized by activation of PLS, but still maintaining membrane integrity. […] However, DDC binding to the cells in early apoptosis was markedly lost upon inhibition of PLS by calcium deprivation (B versus D).
# Cultured Jurkat cells were grown as described in Example 1, and apoptosis was then triggered by treatment with anti-Fas Ab (0.1 μg/ml) for three hours, thus inducing […] activation in these cells.
# In order to inhibit PLS activity in the apoptotic cells, rottlerin was used (Calbiochem, Germany). […] Subsequent to induction of apoptosis, cells were incubated for 40 minutes with rottlerin, at a concentration of 1 μM, were then subjected to treatment with DDC at a concentration of […] and immediately taken for FACS analysis (FIG. 3).
# Inhibition of PLS activity in the apoptotic cells was also achieved by reduction of ambient Ca^2+ levels. Following induction of apoptosis, both control and apoptotic cells (1×10^7 cells) were subjected to Ca^2+-deprivation, by co-treatment with BAPTA (20 μM) and EGTA (1 mM) for 30 minutes. Cells were then treated with DDC (250 μM) and propidium iodide (PI). Binding of DDC to these Ca^2+-deprived cells and to control, Ca^2+-treated (1 mM) cells was analyzed by FACS, and the dot plot is shown in FIG. 4A. The lower left quadrant in each dot plot represents the healthy fraction of cells. The lower right quadrant represents the newly-formed population of cells in the early stages of apoptosis, still maintaining membrane integrity but characterized by activation of PLS. As shown, these cells manifest DDC binding while excluding PI. The upper right quadrant represents cells in the late stages of apoptosis, characterized by disintegration of the plasma membrane, thus unselectively permeable to compounds including PI, that is normally excluded from healthy cells.
# Induction of apoptosis is a major pathway for the activation of PLS. […] For this purpose, apoptosis was triggered in cultured Jurkat cells by treatment with anti-Fas antibody. […]
# [2] = FACS analysis of DDC uptake by control and activated platelets; details: DDC 5 μM, 5 min
# Protocol: (§1) FIG. 6: Control and activated platelets were co-incubated with DDC (at a final concentration of 5 μM under three different conditions: no further treatment; Ca^2+-deprivation due to incubation with BAPTA and EGTA; and restoration of Ca^2+ following re-addition of Ca^2+ and calcium-ionophore A23187. Platelets were then subjected to FACS analysis.
# (§2) The selective binding of DDC to activated platelets was determined using flow cytometric (FACS) analysis. Platelet rich plasma was obtained from healthy volunteers. 10^9 fresh platelets were centrifuged (5 minutes, 380×g), washed and re-suspended in Tyrode's buffer (137 mM NaCl; 2.8 mM KCl; 1 mM MgCl2, 12 mM NaHCO3; 0.4 mM Na2HPO4; 5.5 mM D-glucose and 10 mM Hepes pH 7.4; 0.35% BSA). Control platelets were kept on ice.
# (§3) For activation, 200 μl of washed platelets were incubated with the calcium ionophore A23187 in the presence of 5 mM of CaCl2, at room temperature. Following incubation, platelets were centrifuged (2 min., 10^4 rpm) and re-suspended in 1 ml of Tyrode's buffer. Activated platelets were subsequently incubated with 5 μM of DDC for 5 minutes at room temperature, under three different conditions: (i). without any further treatment; (ii). under conditions of Ca^2+-deprivation, induced by 20 μM of BAPTA and 1 mM of EGTA (for 30 min. at 4° C.); (iii). upon restoration of Ca^2+, wherein platelet intracellular Ca^2+ levels were replenished by addition of 1 mM of CaCl2 and 2 μM of the calcium ionophore A23187. Non-activated platelets served as control. Platelets were subjected to flow cytometric (FACS) analysis using Becton-Dickinson cell sorter and CellQuest software. Excitation was at 360 nm and emission was measured at 530 nm.
# activated platelets = experiment: as above
# Protocol: as §1, §2, §3
# Jurkat cells [3] = experiment: FACS analysis of DDC uptake by Jurkat cells induced to undergo apoptosis by anti-Fas antibody (PI co-staining); remark: listed apart in the source
smiles,measurement,setting,value
CN(C)c1cccc2c(S(=O)(=O)NC(CSSCC(NS(=O)(=O)c3cccc4c(N(C)C)cccc34)C(=O)O)C(=O)O)cccc12 (centres unmarked) [DDC],Binding of DDC to cells in the late stages of apoptosis upon calcium deprivation,"Jurkat cells [1]; PI-permeable cells, BAPTA + EGTA",no effect of PLS inhibition; also recorded: did not affect binding of DDC
same,Cells in the early stages of apoptosis binding DDC (right lower quadrant),"Jurkat cells [1]; apoptotic cells (anti-Fas 0.1 μg/ml 3 h), absence of rottlerin",46%
same,Uptake of DDC by cells in the early stages of apoptosis,"Jurkat cells [1]; apoptotic cells (anti-Fas), with Ca2+ 1 mM",38.4%
same,Uptake of DDC by cells in the early stages of apoptosis,"Jurkat cells [1]; apoptotic cells, Ca2+-deprivation: BAPTA 20 μM + EGTA 1 mM, 30 min",8.89%
same,Cells in the early stages of apoptosis binding DDC (right lower quadrant),"Jurkat cells [1]; apoptotic cells, rottlerin 1 μM (PKCδ inhibitor), 40 min",7.9%
same,Uptake of DDC (early-apoptosis quadrant),"Jurkat cells [1]; control cells, with Ca2+ 1 mM",4.11%
same,DDC binding to cells in the late stages of apoptosis in response to rottlerin,"Jurkat cells [1]; right upper quadrant (DDC and PI positive), rottlerin 1 μM",did not manifest alterations in DDC binding
same,"DDC uptake (fluorescence intensity), control non-activated platelets",[2],low levels of fluorescence intensity; also recorded: only minimal uptake of DDC
same,"DDC uptake (fluorescence intensity), activated platelets under Ca2+-deprivation","activated platelets; BAPTA 20 μM + EGTA 1 mM, 30 min, 4° C.",markedly reduced DDC uptake; also recorded: uptake of DDC was inhibited
same,"DDC uptake (fluorescence intensity), activated platelets upon restoration of Ca2+",activated platelets; CaCl2 1 mM + A23187 2 μM after deprivation,completely restored; also recorded: fluorescence returned to the high values
same,"DDC uptake (fluorescence intensity), activated platelets","activated platelets; activated with A23187 + 5 mM CaCl2, DDC 5 μM, 5 min",significant shift to higher fluorescence values; also recorded: marked enhancement of fluorescence as compared to controls; also recorded: marked shift to higher fluorescence levels; also recorded: marked shift to higher fluorescence intensity
same,DDC binding by cells in early apoptosis with pan-caspase inhibitor,"Jurkat cells [3]; anti-Fas 3 h + Z-VAD-fmk 50 μM, DDC 50 μM 5 min",abolished this DDC binding
same,DDC binding by cells in early apoptosis (peak B),"Jurkat cells [3]; anti-Fas 3 h without Z-VAD-fmk, DDC 50 μM 5 min",marked DDC binding
same,DDC binding to cells in the late stages of apoptosis (peak C) with pan-caspase inhibitor,Jurkat cells [3]; anti-Fas + Z-VAD-fmk 50 μM,no significant alterations
